According to patent publication US20210177796A1, “COMPOSITION FOR PREVENTING OR TREATING INFLAMMATORY DISEASES, CONTAINING MARINE FUNGUS PENICILLIUM SP. SF-5859-DERIVED CURVULARIN-TYPE METABOLITES” (KOREA INSITITUTE OF OCEAN SCIENCE AND TECHNOLOGY, priority 2017, published 2021):
Where two headings read alike, the source gives them in different places.

Tests used:
Format in all cases: cell-based
[1] = system: PGE2 production in LPS-treated RAW 264.7 macrophages; experiment: Inhibition of PGE2 production in LPS-treated RAW264.7 macrophages, PGE2 ELISA kit; settings: RAW 264.7 macrophages pre-treated 3 hours, then LPS (1 μg/mL) 24 hours
Excerpt: RPMI1640, fetal bovine serum (FBS), and other tissue culture reagents were purchased from Gibco BRL Co. (Grand Island, N.Y., USA). All other chemicals were obtained from Sigma-Aldrich Co. (St. Louis, Mo., USA). Primary antibodies (COX-2: sc-1745; iNOS: sc-650; IκB-α: sc-371; p-IκB-α: sc-8404; p50: sc-7178; p65: sc-8008, Santa Cruz Biotechnology, Dallas, Tex., USA, p-ERK: #9101; ERK: #9102; p-JNK: #9251; JNK: #9252S; p-p38: #9211; p38: 9212S, Cell Signaling Technology, Danvers, Mass., USA) and secondary antibodies (mouse: ap124p; goat: ap106p; rabbit: ap132p, Millipore, Billerica Mass., USA) were used. Enzyme-linked immunosorbent assay (ELISA) kits for PGE2 were purchased from R and D Systems, Inc. (Minneapolis, Minn., USA).
(§1) In the present example, RAW264.7 macrophages were pre-treated for 3 hours in the medium containing non-toxic concentrations (Table 1) of each compound (Formula 1 to 4), and then LPS (1 μg/mL) was treated for 24 hours. According to the LPS stimulation of RAW264.7 macrophages, the production of NO and PGE2 was increased, and the effects of all compounds on the production levels of NO and PGE2 were evaluated by the Griess reaction and a PGE2 kit, respectively.

RAW264.7 macrophages = experiment: Cytotoxicity by MTT assay
Description: In the present example, the cytotoxicity of each of the compounds of Formula 1 to 4 was confirmed in RAW264.7 macrophages by MTT assay.
RAW264.7 macrophages were maintained at a density of 5×10^5 cells/mL in RPMI1640 medium supplemented with 10% heat-inactivated FBS, penicillin G (100 units/mL), streptomycin ([…]), and L-glutamine (2 mM), and were incubated at 37° C. in a humidified atmosphere containing 5% CO2. To determine cell viability, cells (1×10^5 cells/well in 96-well plates) were incubated with 3-(4,5-dimethylthiazol-2-yl)-2,5-diphenyltetrazolium bromide (MTT) at a final concentration of 0.5 mg/mL for 3 hours, and the formazan formed was dissolved in acidic 2-propanol. The optical density was measured at 540 nm with a microplate reader (BioRad, Hercules, Calif., USA). The optical density of the formazan formed in control (untreated) cells was considered to represent 100% viability.

[2] = system: NO production in LPS-treated RAW 264.7 macrophages; experiment: Inhibition of NO (nitrite) production in LPS-treated RAW264.7 macrophages, Griess reaction; settings: RAW 264.7 macrophages pre-treated 3 hours, then LPS (1 μg/mL) 24 hours
Description: As an indicator of NO production in RAW264.7 macrophages, production of nitrite, which is a stable end-product of NO oxidation, was evaluated. The concentration of nitrite in conditioned media was determined based on the Griess reaction.
as §1

[3] = system: c-Jun N-terminal kinase (JNK); experiment: LPS-induced JNK phosphorylation in RAW264.7 macrophages; settings: LPS 30 minutes; FIG. 3(b)
Excerpt: (§2) Mitogen-activated protein kinase (MAPK) pathways are known to be involved in the expression of pro-inflammatory cytokines in macrophages. Thus, the effect of the compound of Formula 3 on the LPS-induced phosphorylation of MAPK was examined.

TNF-α = TNF-α mRNA expression in LPS-induced cells, RT-qPCR; settings: pre-treated 3 hours, LPS (1 μg/mL) 6 hours; FIG. 1(d)
Description: (§3) In addition, upon stimulation by LPS, macrophages can trigger the production of pro-inflammatory cytokines such as TNF-α and ILs. The overproduction of these cytokines contributes to the pathogenesis of inflammatory diseases. Thus, the inventors of the present invention further evaluated the effects of the compound of Formula 3 on the mRNA expression of pro-inflammatory cytokines in the LPS-induced cells. The cells were pre-treated with indicated concentration for 3 hours, followed by LPS stimulation (1 μg/mL) for 6 hours. The mRNA expression of pro-inflammatory cytokines was determined by RT-qPCR.

p38 = experiment: LPS-induced p38 phosphorylation in RAW264.7 macrophages; settings: LPS 30 minutes; FIG. 3(a)
Excerpt: as §2

[4] = system: extracellular signal-regulated kinase (ERK); experiment: LPS-induced ERK phosphorylation in RAW264.7 macrophages; settings: LPS 30 minutes; FIG. 3(c)
Excerpt: as §2

COX-2 = COX-2 protein expression in LPS-stimulated RAW264.7 macrophages; settings: pre-treated 3 hours, LPS 24 hours; FIG. 1(a)
Description: (§4) Therefore, the inventors of the present invention further tested whether the inhibitory effects of the compound of Formula 3 against NO and PGE2 productions are correlated with the protein expression of pro-inflammatory enzymes (e.g., iNOS or COX-2, respectively), which are known to catalyze the production of NO and PGEs in LPS-stimulated cells. RAW264.7 macrophages were pre-treated with the indicated concentrations of the compound of Formula 3 for 3 hours, and then stimulated with LPS for 24 hours. The presence of the compound of Formula 3 led to the attenuation of the excessive protein expression of iNOS and COX-2 in a dose-dependent manner (see FIG. 1(a)).

NF-κB (p50 and p65) = experiment: NF-κB activation: nuclear translocation of p50 and p65 in LPS-induced RAW264.7 macrophages; settings: FIG. 2(a)
iNOS = iNOS protein expression in LPS-stimulated RAW264.7 macrophages; settings: pre-treated 3 hours, LPS 24 hours; FIG. 1(a)
Description: as §4

IL-1β = IL-1β mRNA expression in LPS-induced cells, RT-qPCR; settings: pre-treated 3 hours, LPS (1 μg/mL) 6 hours; FIG. 1(b)
Description: as §3

NF-κB = experiment: DNA binding activity of NF-κB in nuclear extracts, NF-κB ELISA kit; settings: FIG. 2(c)
Description: (§5) In the present example, a NF-κB ELISA kit (Active Motif) was used to test the nuclear extracts and determine the degree of NF-κB binding. […] Furthermore, when the cells were treated with LPS alone, the phosphorylation level of IκB-α was increased, whereas the compound of Formula 3 attenuated this phosphorylation of IκB-α. In addition, the compound of Formula 3 blocked the degradation of IκB-α in a concentration-dependent manner (see FIG. 2(b)). In line with these, LPS-induced DNA binding activity of NF-κB was declined in the nuclear extracts of the cells co-treated with the compound of Formula 3 (see FIG. 2(c)).

IL-6 = IL-6 mRNA expression in LPS-induced cells, RT-qPCR; settings: pre-treated 3 hours, LPS (1 μg/mL) 6 hours; FIG. 1(c)
Description: as §3

IκB-α = IκB-α phosphorylation and degradation in LPS-induced RAW264.7 macrophages; settings: FIG. 2(b)
Description: as §5

Row | Molecule | IC50 [1] | IC50 [2] | Cytotoxicity (μM): the maximum concentration not affecting cell viability (RAW264.7 macrophages; RAW264.7 macrophages, MTT) | other results
1 | 5,7-Di-O-acetylcurvularin [Formula 1e] | > 80 µM | 77.5 ± 9.3 µM | – | Cytotoxicity (μM): the maximum concentration not affecting cell viability (RAW264.7 macrophages): >80 µM
2 | 5,7-Di-O-methylcurvularin [Formula 1c] | 49.4 ± 14 µM | 60.6 ± 16.4 µM | – | Cytotoxicity (μM): the maximum concentration not affecting cell viability (RAW264.7 macrophages): >80 µM
3 | CC1CCCCCC(=O)c2c(O)cc(O)cc2CC(=O)O1 (stereo not drawn) [Formula 1a, curvularin] | 18.7 ± 4.9 µM | 18.1 ± 5.2 µM | 40 µM | –
4 | COc1cc(O)c2c(c1)CC(=O)O[C@@H](C)CCCCCC2=O [Formula 1b, 5-O-methylcurvularin] | 40.2 ± 5.1 µM | > 80 µM | >80 µM | –
5 | CC(=O)Oc1cc(O)c2c(c1)CC(=O)O[C@@H](C)CCCCCC2=O [Formula 1d, 5-O-acetylcurvularin] | 73.7 ± 17.1 µM | 46.9 ± 3.7 µM | – | Cytotoxicity (μM): the maximum concentration not affecting cell viability (RAW264.7 macrophages): >80 µM
6 | C[C@H]1CCC[C@@H](O)CC(=O)c2c(O)cc(O)cc2CC(=O)O1 [Formula 2a, (11R,15S)-11-hydroxycurvularin] | 15.6 ± 5.2 µM | 11.5 ± 2.7 µM | 40 µM | –
7 | C[C@H]1CCC[C@H](O)C(=O)c2c(O)cc(O)cc2CC(=O)O1 [Formula 2b, (11S,15S)-11-hydroxycurvularin] | 14.1 ± 4 µM | 7.2 ± 1.6 µM | 40 µM | –
8 | CO[C@@H]1CCC[C@H](C)OC(=O)Cc2cc(O)cc(O)c2C(=O)C1 [Formula 2c, (11R,15S)-11-methoxycurvularin] | 3 ± 1.3 µM | 2.6 ± 0.4 µM | 20 µM | –
9 | CO[C@H]1CCC[C@H](C)OC(=O)Cc2cc(O)cc(O)c2C1=O [Formula 2d, (11S,15S)-11-methoxycurvularin] | 6 ± 1.9 µM | 3.5 ± 0.5 µM | 20 µM | –
10 | C[C@H]1CCC/C=C/C(=O)c2c(O)cc(O)cc2CC(=O)O1 [Formula 3, (10E,15S)-10,11-dehydrocurvularin] | – | – | 20 µM | Phosphorylation of JNK [3]: did not suppress; IC50 ([1]; Mus musculus, RAW264.7): 2.7 ± 0.4 µM; mRNA expression of TNF-α (TNF-α): significantly suppressed; Phosphorylation of p38 (p38): did not suppress; Phosphorylation of ERK [4]: did not suppress; Protein expression of COX-2 (COX-2): attenuation; IC50 ([2]; Mus musculus, RAW264.7): 1.9 ± 0.3 µM; Nuclear translocation of p50 and p65 (NF-κB (p50 and p65)): dose-dependently suppressed; Protein expression of iNOS (iNOS): attenuation; mRNA expression of IL-1β (IL-1β): significantly suppressed; LPS-induced DNA binding activity of NF-κB (NF-κB): declined; mRNA expression of IL-6 (IL-6): significantly suppressed; Degradation of IκB-α (IκB-α): blocked; Phosphorylation of IκB-α (IκB-α): attenuated
11 | C[C@H]1CCC/C=C\C(=O)c2c(O)cc(O)cc2CC(=O)O1 [Formula 4, (10Z,15S)-10,11-dehydrocurvularin] | – | – | 20 µM | IC50 ([1]; Mus musculus, RAW264.7): 6.2 ± 1.1 µM; IC50 ([2]; Mus musculus, RAW264.7): 4.4 ± 0.8 µM
